In the NIST ThermoML archive (doi:10.1016/j.jct.2017.07.008):
Values joined by “and” are separate entries in the source; they are usually repeats but may differ in a detail not shown here. Equal values may be shown once.

Conditions: for surface tension liquid-gas: Drop volume; for viscosity / speed of sound / mass density: Liquid; for viscosity: Capillary tube (Ostwald / Ubbelohde) method; for speed of sound: Frequency=3 MHz, Single path-length method; for mass density: Vibrating tube method

O=Cc1cccs1 [2-thiophenealdehyde]
Conditions	surface tension liquid-gas [mN/m]
283.15 K	47.82
285.65 K	47.52
288.15 K	47.22
290.65 K	46.92
293.15 K	46.6
295.65 K	46.27
298.15 K	45.99
300.65 K	45.68
303.15 K	45.4
305.65 K	45.08
308.15 K	44.75
310.65 K	44.48
313.15 K	44.17

Conditions	mass density	speed of sound [m/s]	viscosity [mPa·s]
283.15 K, 100 kPa	1232.44 kg/m3 and 1232.47 kg/m3	1512.8	2.796
283.15 K, 2000 kPa	1233.56 kg/m3	–	–
283.15 K, 5000 kPa	1235.26 kg/m3	–	–
283.15 K, 7000 kPa	1236.39 kg/m3	–	–
283.15 K, 10000 kPa	1238.06 kg/m3	–	–
283.15 K, 15000 kPa	1240.76 kg/m3	–	–
283.15 K, 20000 kPa	1243.38 kg/m3	–	–
283.15 K, 25000 kPa	1245.94 kg/m3	–	–
283.15 K, 30000 kPa	1248.47 kg/m3	–	–
283.15 K, 35000 kPa	1250.93 kg/m3	–	–
283.15 K, 40000 kPa	1253.33 kg/m3	–	–
283.15 K, 45000 kPa	1255.69 kg/m3	–	–
283.15 K, 50000 kPa	1258.02 kg/m3	–	–
283.15 K, 55000 kPa	1260.26 kg/m3	–	–
283.15 K, 60000 kPa	1262.44 kg/m3	–	–
283.15 K, 65000 kPa	1264.58 kg/m3	–	–
285.65 K, 100 kPa	1229.92 kg/m3	1504.3	2.661
288.15 K, 100 kPa	1227.39 kg/m3	1495.9	2.513
288.15 K, 2000 kPa	1228.51 kg/m3	–	–
288.15 K, 5000 kPa	1230.24 kg/m3	–	–
288.15 K, 7000 kPa	1231.38 kg/m3	–	–
288.15 K, 10000 kPa	1233.07 kg/m3	–	–
288.15 K, 15000 kPa	1235.82 kg/m3	–	–
288.15 K, 20000 kPa	1238.51 kg/m3	–	–
288.15 K, 25000 kPa	1241.13 kg/m3	–	–
288.15 K, 30000 kPa	1243.69 kg/m3	–	–
288.15 K, 35000 kPa	1246.2 kg/m3	–	–
288.15 K, 40000 kPa	1248.64 kg/m3	–	–
288.15 K, 45000 kPa	1251.04 kg/m3	–	–
288.15 K, 50000 kPa	1253.38 kg/m3	–	–
288.15 K, 55000 kPa	1255.68 kg/m3	–	–
288.15 K, 60000 kPa	1257.93 kg/m3	–	–
288.15 K, 65000 kPa	1260.14 kg/m3	–	–
290.65 K, 100 kPa	1224.88 kg/m3	1487.4	2.386
293.15 K, 100 kPa	1222.35 kg/m3 and 1222.36 kg/m3	1479.1	2.267
293.15 K, 2000 kPa	1223.5 kg/m3	–	–
293.15 K, 5000 kPa	1225.27 kg/m3	–	–
293.15 K, 7000 kPa	1226.44 kg/m3	–	–
293.15 K, 10000 kPa	1228.16 kg/m3	–	–
293.15 K, 15000 kPa	1230.98 kg/m3	–	–
293.15 K, 20000 kPa	1233.73 kg/m3	–	–
293.15 K, 25000 kPa	1236.41 kg/m3	–	–
293.15 K, 30000 kPa	1239.02 kg/m3	–	–
293.15 K, 35000 kPa	1241.57 kg/m3	–	–
293.15 K, 40000 kPa	1244.07 kg/m3	–	–
293.15 K, 45000 kPa	1246.51 kg/m3	–	–
293.15 K, 50000 kPa	1248.9 kg/m3	–	–
293.15 K, 55000 kPa	1251.24 kg/m3	–	–
293.15 K, 60000 kPa	1253.53 kg/m3	–	–
293.15 K, 65000 kPa	1255.77 kg/m3	–	–
295.65 K, 100 kPa	1219.84 kg/m3	1470.8	2.162
298.15 K, 100 kPa	1217.32 kg/m3	1462.4	2.053
298.15 K, 2000 kPa	1218.49 kg/m3	–	–
298.15 K, 5000 kPa	1220.31 kg/m3	–	–
298.15 K, 7000 kPa	1221.5 kg/m3	–	–
298.15 K, 10000 kPa	1223.27 kg/m3	–	–
298.15 K, 15000 kPa	1226.15 kg/m3	–	–
298.15 K, 20000 kPa	1228.95 kg/m3	–	–
298.15 K, 25000 kPa	1231.69 kg/m3	–	–
298.15 K, 30000 kPa	1234.36 kg/m3	–	–
298.15 K, 35000 kPa	1236.96 kg/m3	–	–
298.15 K, 40000 kPa	1239.51 kg/m3	–	–
298.15 K, 45000 kPa	1242 kg/m3	–	–
298.15 K, 50000 kPa	1244.43 kg/m3	–	–
298.15 K, 55000 kPa	1246.81 kg/m3	–	–
298.15 K, 60000 kPa	1249.14 kg/m3	–	–
298.15 K, 65000 kPa	1251.43 kg/m3	–	–
300.65 K, 100 kPa	1214.8 kg/m3	1454	1.96
303.15 K, 100 kPa	1212.28 kg/m3 and 1212.29 kg/m3	1445.7	1.875
303.15 K, 2000 kPa	1213.48 kg/m3	–	–
303.15 K, 5000 kPa	1215.34 kg/m3	–	–
303.15 K, 7000 kPa	1216.56 kg/m3	–	–
303.15 K, 10000 kPa	1218.37 kg/m3	–	–
303.15 K, 15000 kPa	1221.32 kg/m3	–	–
303.15 K, 20000 kPa	1224.19 kg/m3	–	–
303.15 K, 25000 kPa	1226.98 kg/m3	–	–
303.15 K, 30000 kPa	1229.71 kg/m3	–	–
303.15 K, 35000 kPa	1232.36 kg/m3	–	–
303.15 K, 40000 kPa	1234.96 kg/m3	–	–
303.15 K, 45000 kPa	1237.49 kg/m3	–	–
303.15 K, 50000 kPa	1239.97 kg/m3	–	–
303.15 K, 55000 kPa	1242.4 kg/m3	–	–
303.15 K, 60000 kPa	1244.77 kg/m3	–	–
303.15 K, 65000 kPa	1247.09 kg/m3	–	–
305.65 K, 100 kPa	1209.76 kg/m3	1437.3	1.797
308.15 K, 100 kPa	1207.25 kg/m3	1429	1.728
308.15 K, 2000 kPa	1208.47 kg/m3	–	–
308.15 K, 5000 kPa	1210.38 kg/m3	–	–
308.15 K, 7000 kPa	1211.63 kg/m3	–	–
308.15 K, 10000 kPa	1213.48 kg/m3	–	–
308.15 K, 15000 kPa	1216.49 kg/m3	–	–
308.15 K, 20000 kPa	1219.43 kg/m3	–	–
308.15 K, 25000 kPa	1222.28 kg/m3	–	–
308.15 K, 30000 kPa	1225.06 kg/m3	–	–
308.15 K, 35000 kPa	1227.77 kg/m3	–	–
308.15 K, 40000 kPa	1230.42 kg/m3	–	–
308.15 K, 45000 kPa	1233 kg/m3	–	–
308.15 K, 50000 kPa	1235.53 kg/m3	–	–
308.15 K, 55000 kPa	1238 kg/m3	–	–
308.15 K, 60000 kPa	1240.41 kg/m3	–	–
308.15 K, 65000 kPa	1242.78 kg/m3	–	–
310.65 K, 100 kPa	1204.73 kg/m3	1420.7	1.654
313.15 K, 100 kPa	1202.21 kg/m3	1412.4	1.59
313.15 K, 2000 kPa	1203.46 kg/m3	–	–
313.15 K, 5000 kPa	1205.41 kg/m3	–	–
313.15 K, 7000 kPa	1206.7 kg/m3	–	–
313.15 K, 10000 kPa	1208.59 kg/m3	–	–
313.15 K, 15000 kPa	1211.67 kg/m3	–	–
313.15 K, 20000 kPa	1214.67 kg/m3	–	–
313.15 K, 25000 kPa	1217.59 kg/m3	–	–
313.15 K, 30000 kPa	1220.43 kg/m3	–	–
313.15 K, 35000 kPa	1223.19 kg/m3	–	–
313.15 K, 40000 kPa	1225.89 kg/m3	–	–
313.15 K, 45000 kPa	1228.52 kg/m3	–	–
313.15 K, 50000 kPa	1231.1 kg/m3	–	–
313.15 K, 55000 kPa	1233.61 kg/m3	–	–
313.15 K, 60000 kPa	1236.07 kg/m3	–	–
